Experimental data reported in PubChem BioAssay AID248 (DTP/NCI, 2004).
Where “and” joins values, the source holds several entries; their conditions need not be identical. Equal entries are not always repeated. Toxic doses and inconclusive results are not listed. Cut-off read from the data, not from the text of the source: active = T/C of 150% or more; inactive = T/C below 125%.

System: L1210 leukemia ip in BDF1 mice, survival T/C
Assay: NCI In Vivo Anticancer Drug Screen. Data for tumor model L1210 Leukemia (intraperitoneal) in B6D2F1 (BDF1) mice
Conditions: endpoint: mean survival time, higher = longer survival
Procedure, shortened: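 Value reflects the ratio of survival in compound-treated mice to survival in vehicle-treated controls, with both groups carrying the same transplanted tumor.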

[1] = dose: 100.0 mg/kg/injection, schedule: Q01DX001 (ip), vehicle: Klucel (hydroxypropylcellulose) (HPC)
[2] = dose: 200.0 mg/kg/injection, schedule: Q01DX001 (ip), vehicle: Klucel (hydroxypropylcellulose) (HPC)
[3] = dose: 400.0 mg/kg/injection, schedule: Q01DX001 (ip), vehicle: Klucel (hydroxypropylcellulose) (HPC)
[4] = dose: 100.0 mg/kg/injection, schedule: Q01DX001 (ip), vehicle: saline
[5] = dose: 200.0 mg/kg/injection, schedule: Q01DX001 (ip), vehicle: saline
[6] = dose: 400.0 mg/kg/injection, schedule: Q01DX001 (ip), vehicle: saline
[7] = dose: 6.25 mg/kg/injection, schedule: Q04DX003 (ip), vehicle: saline
[8] = dose: 12.5 mg/kg/injection, schedule: Q01DX009 (ip), vehicle: saline
[9] = dose: 12.5 mg/kg/injection, schedule: Q04DX003 (ip), vehicle: saline
[10] = dose: 25.0 mg/kg/injection, schedule: Q01DX009 (ip), vehicle: saline
[11] = dose: 25.0 mg/kg/injection, schedule: Q04DX003 (ip), vehicle: saline
[12] = dose: 100.0 mg/kg/injection, schedule: Q04DX003 (ip), vehicle: Klucel (hydroxypropylcellulose) (HPC)
[13] = dose: 200.0 mg/kg/injection, schedule: Q04DX003 (ip), vehicle: Klucel (hydroxypropylcellulose) (HPC)
[14] = dose: 400.0 mg/kg/injection, schedule: Q04DX003 (ip), vehicle: Klucel (hydroxypropylcellulose) (HPC)
[15] = dose: 100.0 mg/kg/injection, schedule: Q01DX009 (ip), vehicle: saline with Tween-80
[16] = dose: 200.0 mg/kg/injection, schedule: Q01DX009 (ip), vehicle: saline with Tween-80
[17] = dose: 400.0 mg/kg/injection, schedule: Q01DX009 (ip), vehicle: saline with Tween-80

Measured: T/C

O=CC(NC(=O)c1ccccc1)C(O)C(O)C(O)CO (stereo not drawn)
inactive: [1] 98 % of control | [2] 105 % of control | [3] 105 % of control

COC(=O)C1(C)COP(=O)(O)OC1 (stereo not drawn)
inactive: [4] 91 % of control and 103 % of control | [5] 89 % of control and 100 % of control | [6] 97 % of control

COC(=O)[C@H]1[C@H]2C[C@@H]3c4[nH]c5cc(OC)ccc5c4CCN3C[C@H]2C[C@@H](OC(=O)c2cc(OC)c(OC)c(OC)c2)[C@@H]1OC
inactive: dose: 1.0 mg/kg/injection, schedule: Q01DX Z (ip), vehicle: carboxymethylcellulose (CMC) 100 % of control | dose: 1.56 mg/kg/injection, schedule: Q01DX001 (ip), vehicle: other 100 % of control | dose: 1.56 mg/kg/injection, schedule: Q01DX009 (ip), vehicle: saline 111 % of control | dose: 1.56 mg/kg/injection, schedule: Q04DX003 (ip), vehicle: other 95 % of control | dose: 2.0 mg/kg/injection, schedule: Q01DX Z (ip), vehicle: carboxymethylcellulose (CMC) 100 % of control | dose: 3.12 mg/kg/injection, schedule: Q01DX001 (ip), vehicle: other 96 % of control | dose: 3.12 mg/kg/injection, schedule: Q01DX009 (ip), vehicle: saline 109 % of control | dose: 3.12 mg/kg/injection, schedule: Q04DX003 (ip), vehicle: other 95 % of control | dose: 5.0 mg/kg/injection, schedule: Q01DX001 (ip), vehicle: other 92 % of control | dose: 5.25 mg/kg/injection, schedule: Q01DX009 (ip), vehicle: other 98 % of control | dose: 6.25 mg/kg/injection, schedule: Q01DX001 (ip), vehicle: other 96 % of control | dose: 6.25 mg/kg/injection, schedule: Q01DX009 (ip), vehicle: saline 101 % of control | dose: 6.25 mg/kg/injection, schedule: Q04DX003 (ip), vehicle: other 115 % of control | [7] 90 % of control | dose: 9.2 mg/kg/injection, schedule: Q04DX003 (ip), vehicle: other 101 % of control | dose: 10.0 mg/kg/injection, schedule: Q01DX001 (ip), vehicle: other 100 % of control | dose: 12.5 mg/kg/injection, schedule: Q01DX001 (ip), vehicle: carboxymethylcellulose (CMC) 103 % of control | [8] 104 % of control | [9] 108 % of control | dose: 14.0 mg/kg/injection, schedule: Q04DX003 (ip), vehicle: other 88 % of control | dose: 20.0 mg/kg/injection, schedule: Q01DX001 (ip), vehicle: other 97 % of control | dose: 21.0 mg/kg/injection, schedule: Q04DX003 (ip), vehicle: other 95 % of control | [10] 92 % of control | [11] 103 % of control | dose: 40.0 mg/kg/injection, schedule: Q01DX001 (ip), vehicle: other 97 % of control | dose: 80.0 mg/kg/injection, schedule: Q01DX001 (ip), vehicle: other 94 % of control

CCN(CC)CCCC(C)Nc1cc(/C=C/c2ccc(Cl)cc2)nc(/C=C/c2ccc(Cl)cc2)n1 (stereo not drawn)
inactive: dose: 50.0 mg/kg/injection, schedule: Q04DX003 (ip), vehicle: Klucel (hydroxypropylcellulose) (HPC) 96 % of control | [4] 96 % of control | [12] 96 % of control | [5] 98 % of control | [13] 98 % of control

O=C(/C=C/c1ccccc1)CC(=O)c1ccccc1
inactive: dose: 100.0 mg/kg/injection, schedule: Q04DX003 (ip), vehicle: DMSO 102 % of control | dose: 200.0 mg/kg/injection, schedule: Q04DX003 (ip), vehicle: DMSO 97 % of control | dose: 400.0 mg/kg/injection, schedule: Q04DX003 (ip), vehicle: DMSO 96 % of control

CN(C)C1CCc2ccc3ccccc3c2C1=O (stereo not drawn)
inactive: dose: 50.0 mg/kg/injection, schedule: Q01DX009 (ip), vehicle: saline 88 % of control

CSc1cccc(C(=O)O)c1
inactive: [1] 102 % of control | [2] 102 % of control | [3] 94 % of control

O=c1/c(=C\c2ccccc2Cl)sc2n1CCN=2
inactive: [4] 100 % of control | [5] 105 % of control | [6] 105 % of control

CC(C)NC(=O)OC(C)C
inactive: [12] 96 % of control | [13] 104 % of control | [14] 98 % of control

CC1COCC(C)N1C(=O)c1cccnc1 (stereo not drawn)
inactive: [4] 99 % of control | dose: 100.0 mg/kg/injection, schedule: Q01DX009 (ip), vehicle: saline 101 % of control and 103 % of control | dose: 100.0 mg/kg/injection, schedule: Q04DX002 (ip), vehicle: saline 96 % of control and 100 % of control | dose: 100.0 mg/kg/injection, schedule: Q04DX003 (ip), vehicle: saline 100 % of control | [5] 99 % of control | dose: 200.0 mg/kg/injection, schedule: Q01DX009 (ip), vehicle: saline 113 % of control and 114 % of control | dose: 200.0 mg/kg/injection, schedule: Q04DX002 (ip), vehicle: saline 107 % of control and 110 % of control | dose: 200.0 mg/kg/injection, schedule: Q04DX003 (ip), vehicle: saline 105 % of control | [6] 101 % of control | dose: 400.0 mg/kg/injection, schedule: Q01DX009 (ip), vehicle: saline 103 % of control | dose: 400.0 mg/kg/injection, schedule: Q04DX002 (ip), vehicle: saline 105 % of control and 110 % of control | dose: 400.0 mg/kg/injection, schedule: Q04DX003 (ip), vehicle: saline 105 % of control

COCCNCCN1CCN(CCCN2c3ccccc3Sc3ccc(C(F)(F)F)cc32)CC1
inactive: [7] 110 % of control | [8] 107 % of control | [9] 96 % of control and 100 % of control | [10] 105 % of control | [11] 95 % of control and 105 % of control | dose: 50.0 mg/kg/injection, schedule: Q04DX003 (ip), vehicle: saline 102 % of control and 108 % of control

N#Cc1c(O)c(Cl)c(Cl)c(O)c1C#N
inactive: [12] 109 % of control | [13] 96 % of control | [14] 96 % of control

CCOC(=O)CC1c2nc3ccccc3cc2CN1C(=O)CCOCc1ccccc1 (stereo not drawn)
inactive: dose: 10.0 mg/kg/injection, schedule: Q04DX003 (ip), vehicle: alcohol 92 % of control | dose: 20.0 mg/kg/injection, schedule: Q04DX003 (ip), vehicle: alcohol 92 % of control | dose: 40.0 mg/kg/injection, schedule: Q04DX003 (ip), vehicle: alcohol 100 % of control | dose: 80.0 mg/kg/injection, schedule: Q04DX003 (ip), vehicle: alcohol 96 % of control | dose: 160.0 mg/kg/injection, schedule: Q04DX003 (ip), vehicle: alcohol 89 % of control

Cc1ccc(C)c(CCCC(=O)O)c1
inactive: [15] 96 % of control | [12] 105 % of control | [16] 93 % of control | [13] 94 % of control | [17] 104 % of control | [14] 100 % of control

C=C(Cl)CN(CCCC(=O)O)c1cccc(OC)c1
inactive: [15] 89 % of control | dose: 100.0 mg/kg/injection, schedule: Q04DX003 (ip), vehicle: other 100 % of control | [16] 95 % of control | dose: 200.0 mg/kg/injection, schedule: Q04DX003 (ip), vehicle: other 98 % of control | [17] 97 % of control | dose: 400.0 mg/kg/injection, schedule: Q04DX003 (ip), vehicle: other 100 % of control
